Here are results for three molecules from patent US10172953B2, “XTEN conjugate compositions and methods of making same” (Amunix Operating Inc., priority 2012, dated 2019).

In series [1] the test system is folate receptor-positive KB cell line. Put plainly: CellTiter-Glo anti-proliferation assay on KB cells. It is filed as cell-based. Particulars: absence of folic acid competitor, read-out: IC50 (cell killing). On the procedure: The ability to selectively target and kill cells bearing folate receptors was evaluated. Test articles of free MMAE, a non-targeting 3×MMAE-XTEN conjugate (XTEN linked to toxin) and the folate receptor-targeted 3×FA(γ),3×MMAE-XTEN conjugate were evaluated in a CellTiter-Glo anti-proliferation assay using the folate receptor-positive KB cell line. As culture media contain high folic acid content, KB cells were grown in folic acid-free media containing 10% heat-inactivated fetal calf serum at 37° C., 5% C02 for at least 7 days prior to the commencement of the cell viability experiment, This medium was also utilized for the execution of the experiment. In brief, KB cells were plated at 10,000 cells per well onto a 96-well microtiter assay plate. KB cells were allowed to adhere to the plate by an overnight incubation at 37° C., 5% CO2. The spent media was then removed and wells designated to contain folic acid competitor received assay medium containing folic acid, while wells not designated to have folic acid competitor received assay medium only. The plate was incubated for 30 min at 37° C., 5% CO2 before the assay media was aspirated and plate washed with assay media. […] After the appropriate incubation period, CellTiter-Glo reagent was added and the plate was read on a luminometer. The IC50 of each test article was determined using a 4 parameter logistic curve fit using GraphPad Prism.
A general note: ATP-based viability assays read luminescence as a measure of living cells.

The conditions of series [2]: cited from earlier work.
The conditions of series [3]: unmodified peptide/protein, humans/patients; cited from earlier work.
The conditions of series [4]: rats, intravenous administration; cited from earlier work.

Square brackets hold non-standard residues; d marks the D form. Peptide text beside a SMILES is read from it. * marks the point of attachment. Dolaproine = CO[C@@H]([C@@H]1CCCN1)[C@@H](C)C(=O)O; Dil = CC[C@H](C)[C@H](NC)[C@@H](CC(=O)O)OC; X1 = C[C@@H](N*)[C@@H](O)c1ccccc1; NMeV = CN[C@H](C(=O)O)C(C)C

For `CC[C@H](C)[C@@H]([C@@H](CC(=O)N1CCC[C@H]1[C@H](OC)[C@@H](C)C(=O)N[C@H](C)[C@@H](O)c1ccccc1)OC)N(C)C(=O)[C@@H](NC(=O)[C@@H](NC)C(C)C)C(C)C` [MMAE, monomethyl auristatin E] (H-[NMeV]V[Dil][Dolaproine]-X1), the IC50 in series [1] came out at 800 pM. Regarding `CC(C)[C@H]1C(=O)N[C@@H](CCCN=C(N)N)C(=O)NCC(=O)N[C@@H](CC(=O)O)C(=O)N[C@H](Cc2ccccc2)C(=O)N1C` [cilengitide, 2-[(2S,5R,8S,11S)-5-benzyl-11-{3-[(diaminomethylidene)amino]propyl}-7-methyl-3,6,9,12,15-pentaoxo-8-(propan-2-yl)-1,4,7,10,13-pentaazacyclopentadecan-2-yl]acetic acid, reference compound], the “maximum drug concentration (poor solubility)” value in series [2] is at most 15 mg/mL. For the same molecule, the half-life in series [3] is 3 to 5 h.

B1: follistatin: protein encoded by the FST gene (protein, UniProt P19883 30-344, looked up)
Follistatin: GNCWLRQAKNGRCQVLYKTELSKEECCSTGRLSTSWTEEDVNDNTLFKWMIFNGGAPNCIPCKETCENVDCGPGKKCRMNKKNKPRCVCAPDCSNITWKGPVCGLDGKTYRNECALLKARCKEQPELEVQYQGRCKKTCRDVFCPGSSTCVVDQTNNAYCVTCNRICPEPASSEQYLCGNDGVTYSSACHLRKATCLLGRSIGLAYEGKCIKAKSCEDIQCTGGKKCLWDFKVGRGRCSLCDELCPDSKSDEPVCASDNATYASECAMKEAACSSGVLLEVKHSGSCNSISEDTEEEEEDEDQDYSFPISSILEW
As to B1, the terminal half-life entry in series [4] is “over 2 hours”.

By IC50 is commonly meant the concentration that inhibits the measured activity by half. As a reminder, the half-life is how long it takes for the measured level to halve.
